Target: Indoleamine 2,3-dioxygenase 1 (Homo sapiens, UniProt P14902)
Assay: Inhibitory Activity Assay: The tested compounds and the reference compounds are dissolved in DMSO to prepare a high concentration of storage solution. The stock solution of reference compound was diluted with DMSO to prepare a 100× solution. In the first column of the working plate, 8 μL above tested compounds and 8 μL 100× reference compound were respectively added as the highest concentration, and then the highest concentrations were subjected to three times dilution to obtain 11 concentrations and prepare 100× solution. 0.5 μL solution was transferred from the above plate to the detection plate. To each well was added 0.5 μL 100× compound solution. For HPE and ZPE control wells, 0.5 μL 100% DMSO was added.25 μL 2×IDO1 (His-tag) enzyme solution (containing L-ascorbic acid, methylene blue, and catalase) was added to each well. 25 μL reaction solution without IDO1 (His-tag) enzyme was added into HPE control well. The test plate was centrifugated at 1000 rpm for 1 minute to mix well. Then, the test plate was incubated at room temperature for 30 minutes. 25 μL above 2× substrate (L-tryptophan) solution was added to each well. The test plate was centrifugated at 1000 rpm for 1 minute to mix well. The detection plate was placed on ELISA (SpectraMax M5e), the temperature was set at 25° C., and the absorbance (OD value) was measured at 320 nm every 10 minutes till 60 minutes.

Chain of Indoleamine 2,3-dioxygenase 1 (P14902 whole entry): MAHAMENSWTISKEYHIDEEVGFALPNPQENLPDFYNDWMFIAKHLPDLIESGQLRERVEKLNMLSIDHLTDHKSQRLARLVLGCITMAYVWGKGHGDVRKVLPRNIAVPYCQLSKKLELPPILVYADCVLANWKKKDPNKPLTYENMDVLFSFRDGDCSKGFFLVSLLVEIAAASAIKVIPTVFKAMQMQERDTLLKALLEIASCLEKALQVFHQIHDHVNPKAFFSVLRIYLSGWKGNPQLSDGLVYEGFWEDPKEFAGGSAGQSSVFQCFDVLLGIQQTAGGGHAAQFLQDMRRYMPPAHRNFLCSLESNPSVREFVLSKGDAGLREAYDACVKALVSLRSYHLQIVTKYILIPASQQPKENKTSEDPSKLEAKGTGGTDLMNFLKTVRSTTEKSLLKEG

## NS(=O)(=O)N1CCC(CSc2nonc2C(=NO)Nc2ccc(F)c(Br)c2)C1 (stereo unspecified)
  IC50: 107 nM

— ChEMBL document CHEMBL5729320, “Indoleamine-2,3-dioxygenase inhibitor, the preparative method and the use thereof” (2022)
